Experiments:
MV-411 cell line = test: Inhibition of cell proliferation, MV-411 (CCK-8); assay type: cell-based; settings: Homo sapiens, MV4-11, 120 h, MV411 cells, 5 days, read-out: Inhibition activity on the proliferation of different cell lines MV411 (IC50)
Procedure: • MV-411 cell line (COBIER, CBP-60522) • FBS (GEMINI, Cat. No. 900-108) • 0.01M PBS (Biosharp, Cat. No. 162262) • IMDM (Hyclone, Cat. No. SH30228.01) • Penicillin-Streptomycin (Gibco, Cat. No. 15140122) • DMSO (Sigma, Cat. No. D5879) • Cell counting kit-8 (Signalway Antibody, Cat. No. CP002) • Centrifuge Tube, 15 ml (Excell Bio, Cat. No. CS015-0001) • Cell Culture Dish, (WHB, Cat. No. CS016-0128) • 96-well cell culture cluster (Corning, Cat. No. 3599)
• (1) Cell culture medium: IMDM medium+10% FBS+1% Pen Strep; • (2) PBS buffer: PBS powder was dissolved in 2 L of ultrapure water and sterilized;
(1) MV-411 cells were cultured in the cell culture medium, and then well-growing cells were selected and inoculated in a 96-well plate at 80 μL/well, with 2×10^4 cells/well. The plate was incubated overnight in a 5% CO2 cell incubator at 37° C.
(2) 10 mM storage solution of each drug was prepared using dimethylsulfoxide (DMSO). The stock solution was diluted in a ratio of 1:3 with DMSO before use, and then the solution was serially diluted in a ratio of 1:3, to obtain 9 gradient concentrations. Each concentration was further diluted with the medium in a ratio of 1:200 (to ensure that the DMSO concentration in the culture system was 0.1%). Two wells were set for each concentration. 20 μL of each compound solution was added to the cell culture well (with a final concentration of 10 μM, 3.3 μM, 1.1 μM . . . ). The plate was gently shaken and mixed. Additionally, 3 negative control wells (only containing cells) and 3 blank control wells (only containing the medium) were included (6 wells were each added with 20 μL of DMSO diluted with the medium in a ratio of 1:200).
(1) After 5 days of cultivation, 10 μL of CCK-8 was added to each well, and then the plate was further cultured for 3 h at 37° C. in a 5% CO2 cell incubator.
(2) The absorbance (OD value) was measured at 450 nm with a multifunctional microplate reader. (3) The data were analyzed using the Dose-response-inhibition equation in GraphPad Prism8 software to obtain the IC50 value.

SHP2 protein = target: T1, SHP2 protein (Homo sapiens, UniProt Q06124); test: Degradation activity on SHP2 protein in NCI-H358 cells (Western blot, DC50); assay type: cell-based; parameters: endogenous in cells; settings: read-out: Degradation activity for differenct cell lines NCI-H358 (DC50)
T1 sequence (Q06124 1-593): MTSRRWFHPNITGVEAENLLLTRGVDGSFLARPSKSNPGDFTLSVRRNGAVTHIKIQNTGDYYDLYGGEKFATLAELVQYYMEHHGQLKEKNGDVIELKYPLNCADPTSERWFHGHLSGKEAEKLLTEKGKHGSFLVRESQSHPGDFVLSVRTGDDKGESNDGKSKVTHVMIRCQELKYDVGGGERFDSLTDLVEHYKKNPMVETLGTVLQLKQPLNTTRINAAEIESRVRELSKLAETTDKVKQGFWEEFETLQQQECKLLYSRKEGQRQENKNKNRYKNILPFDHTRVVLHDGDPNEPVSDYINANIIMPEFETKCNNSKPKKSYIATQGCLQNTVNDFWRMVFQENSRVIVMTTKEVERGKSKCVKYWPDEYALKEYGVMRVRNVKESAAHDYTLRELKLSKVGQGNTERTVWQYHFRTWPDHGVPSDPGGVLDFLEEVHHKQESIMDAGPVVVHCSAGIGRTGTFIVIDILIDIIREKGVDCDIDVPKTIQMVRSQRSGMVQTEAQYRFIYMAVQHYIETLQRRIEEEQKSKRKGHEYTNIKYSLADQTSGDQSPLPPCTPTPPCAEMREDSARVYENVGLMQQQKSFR
Procedure, shortened: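 DC50 is the concentration degrading 50% of SHP2 relative to DMSO control. It was derived by fitting Western blot band densitometry (anti-SHP2, GAPDH reference) from cells exposed 24 h to 0.1–100 nM compound in 0.1% DMSO.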

Row | SMILES | IC50 (MV-411 cell line) [nM] | DC50 (SHP2 protein) [nM]
1 | CC1(N)CCN(c2cnc(Sc3cccc(NC(=O)CCCCCCCCN4CCN(c5ccc(C(=O)NCc6ccc7c(c6)CN(C6CCC(=O)NC6=O)C7=O)nn5)CC4)c3)cn2)CC1 (stereo not drawn) [Compound 63] | < 1000 | < 100
2 | CC1(N)CCN(c2cnc(Sc3cccc(NC(=O)CCCCCCCCN4C5CCC4CN(c4ccc(C(=O)NCc6ccc7c(c6)CN(C6CCC(=O)NC6=O)C7=O)nn4)C5)c3)cn2)CC1 (stereo not drawn) [Compound 119] | < 1000 | < 100
3 | Cc1ncsc1-c1ccc([C@H](C)NC(=O)[C@@H]2C[C@@H](O)CN2C(=O)[C@@H](NC(=O)CCCCCCCCN2CCN(C(=O)CCC(=O)Nc3cccc(Sc4ncc(N5CCC(C)(N)CC5)nc4N)c3Cl)CC2)C(C)(C)C)cc1 [Compound 999] | < 1000 | < 100
4 | NC1(CO)CCN(c2cnc(Sc3cccc(NC(=O)CCCCCCN4CC5(CCN(c6ccc(C(=O)NCc7ccc8c(c7)CN(C7CCC(=O)NC7=O)C8=O)nn6)C5)C4)c3)cn2)CC1 (stereo not drawn) [Compound 168] | < 1000 | 100 to 1000
5 | CCC1(N)CCN(c2cnc(Sc3cccc(NC(=O)CCCCCCN4CC5(CCN(c6ccc(C(=O)NCc7ccc8c(c7)CN(C7CCC(=O)NC7=O)C8=O)nn6)C5)C4)c3)cn2)CC1 (stereo not drawn) [Compound 161] | < 1000 | 100 to 1000
6 | CC1(N)CCN(c2cnc(Sc3cccc(NC(=O)CCCCCCCCN4CCN(c5ccc(C(=O)NCc6ccc7c(c6)CN(C6CCC(=O)NC6=O)C7=O)nn5)CC4C(F)(F)F)c3)cn2)CC1 (stereo not drawn) [Compound 174] | 1000 to 5000 | < 100
